{
  "source": "patent US11014934B2",
  "about": "“Antiseptic drug” (AO “TATKHIMFARMPREPARATY”, priority 2017, dated 2021)",
  "type_in_all_cases": "cell-based",
  "key": {"gram-negative bacteria": {"system": "gram-negative bacteria", "experiment": "MIC screening, summary for gram-negative bacteria", "experimental": "A comparative assessment of the spectrum of antibacterial action was carried out on archival and clinical strains of gram-positive and gram-negative microorganisms in accordance with the [Opredeleniye chuvstvitel'nosti mikroorganizmov k antibakterial'nym preparatam (Metodicheskiye ukazaniya MUK 4.2.1890-04). Utverzhdeny i vvedeny v deystviye Glavnym gosudarstvennym sanitarnym vrachom Rossiyskoy Federatsii G. G. Onishchenko 04.03.2004 g. Determination of the sensitivity of microorganisms to antibacterial drugs (Guidelines MUK 4.2.1890-04). Approved and put into effect by the Chief State Sanitary Doctor of the Russian Federation G. G. Onishchenko on 4 Mar. 2004].\nThe value of the minimum inhibitory concentration (MIC) was determined by the method of serial dilutions on Müller-Hinton broth using 96-well sterile plates. Two-fold dilutions of the test substances in a nutrient medium were prepared. The final concentrations were 1-128 ug/ml. The growth of cultures was assessed visually, comparing the growth of microorganisms in the presence of test compounds with the growth of culture without them. […] The first lowest concentration of the studied substance (from a series of consecutive dilutions), where bacterial growth is not visually determined, is considered to be the minimum inhibitory concentration (MIC). MIC was determined by the method of serial dilutions in broth with increment=2, so the differences of neighboring dilutions are not considered to be significant. In each experience there is a positive (broth with growing culture) and a negative (broth without growing culture) control.\nTo determine the MIC, 10 μl of culture medium was taken from those wells in which growth was not observed, and inoculation was performed on a dense Müller-Hinton broth. For the preparation of the inoculum, a pure, daily culture of gram-positive and gram-negative microorganisms grown on a dense nutrient medium was used. Nutrient medium is Müller-Hinton broth, which was prepared from dry media (Müller-Hinton broth, Acumedia, Baltimore), cultivation was carried out on agarized Müller-Hinton broth, including an additional 2% agar. The media were autoclaved at 121° C. for 15 minutes. […] The inoculum was used within 15 minutes after preparation; the purity of the bacterial strains was monitored before each experiment.\n100 μl of Müller-Hinton broth was added to the wells of each plate; The tested substance was introduced into the first well at a concentration of 128 μg/ml in a volume of 100 μl and its concentration was adjusted to 0.5 μg/ml by consecutive two-fold dilution. […] In addition, the purity of nutrient media and solvents was monitored. […] The growth of cultures was assessed visually, comparing the growth of microorganisms in the presence of test compounds with the growth of culture without them. […]"}, "Asp. fumigates": {"system": "Asp. fumigates", "experiment": "Sensitivity of microscopic fungi in solution (colonies after exposure)", "experimental": "(§1) For the preparation of inoculum, were respectively used pure (2-5) days cultures of yeast and mycelial fungi, grown on Saburo's dense nutrient broth. Inoculum for plating was prepared in different ways, depending on the type of fungi. Thus, yeast crops (C. albicans) were prepared by washing the culture from an agar stroke. Cultures of mycelial fungi (Rh. oryzae, Asp. fumigatus) were pre-degraded in a pounder. A suspension of microorganisms was prepared in a sterile isotonic sodium chloride solution, bringing the inoculum density to 5 UNITS (GISK [State Research Institute of Standardization and Control] named after L. A. Tarasevich) or according to the McFarland standard 1 UNIT with a concentration of at least 1×10^6 CFU/ml, considering that the size of the fungal elements is approximately 10 times the size of bacteria (this provided the possibility of creating a mixture of biocide with suspension, the concentration of microorganisms of the order of 1×10^5 CFU/ml).\n(§2) Solutions of compound I, miramistin, and benzalkonium chloride in working concentrations (0.1%, 0.2%, 0.3%) were poured into sterile 0.9 ml tubes. 0.1 ml of microbial suspension was added to test tubes with disinfectant solutions and mixed by shaking for several seconds. The exposition lasted for 1, 5, and 15 minutes. After required temporary exposure for action of the disinfectant, 0.5 ml of the neutralizer solution was added and mixed by shaking.\n(§3) Then, 0.1 ml of the mixture was inoculated on a dense nutrient medium and the plates with inoculate were placed in a thermostat with a temperature of 27° C. for (2-4) days for yeast and (5-7) days for mycelial fungi, respectively.\n(§4) After the time required for the cultivation of microorganisms of this species, the results were counted according to the number of colonies grown on the Petri dish. In the absence of growth, the time for culturing microorganisms was increased by a factor of 2. The grown colonies were subjected to microscopy.\n(§5) The tested substances were studied on clinical and archival strains of yeast and mycelial fungi. As comparison drugs, drugs commonly used in clinical practice were used: miramistin and benzalconium chloride. After the required exposure time for action of the disinfectant, a series of 0.1 ml mixture was aseptically plated on the surface of a dense nutrient medium in Petri dishes. After the time of cultivation of microorganisms, the results were counted according to the number of colonies grown on the Petri dish."}, "C. albicans": {"system": "C. albicans", "experiment": "Sensitivity of microscopic fungi in solution (colonies after exposure)", "experimental": "as §1, §2, §3, §4, §5"}},
  "data": [
    {"smiles": "CCCCCCCCCCCC[N+](C)(C)Cc1cnc(C[N+](C)(C)CCCCCCCCCCCC)c2c1COC(CC)O2", "note": "(centres unmarked) [Compound I, 5,8-(Bis(methylene (N, N-dimethyl-N-dodecylammonium))-2-ethyl-4H-[1,3]dioxino [4,5-c]pyridiniumdichloride]", "values": [
      {"measurement": "MIC", "setting": "gram-negative bacteria; in 11 strains", "result": "2 to 4", "unit": "µg/mL"},
      {"measurement": "MIC", "setting": "gram-negative bacteria; in 12 strains", "result": "32 to 64", "unit": "µg/mL"},
      {"measurement": "MIC", "setting": "gram-negative bacteria; in 18 strains", "result": "8 to 16", "unit": "µg/mL"},
      {"measurement": "Number of colonies grown in a Petri dish", "setting": "Asp. fumigates; exposure 5 min, 0.1% solution", "result": 1},
      {"measurement": "Number of colonies grown in a Petri dish", "setting": "C. albicans; exposure 1 min, 0.1% solution", "result": 3},
      {"measurement": "Number of colonies grown in a Petri dish", "setting": "C. albicans; exposure 5 min, 0.1% solution", "result": 1}
    ]},
    {"smiles": "CCCCCCCCCCCCCC(=O)NCCC[N+](C)(C)Cc1ccccc1.O.[Cl-]", "note": "[Miramistin, benzyldimethyl [3-(myristoylamino)propyl]-ammonium chloride monohydrate]", "values": [
      {"measurement": "MIC", "setting": "gram-negative bacteria; Escherichia coli, ATCC25922, range, with the exception for the archival strain E. coli ATCC 25922", "result": "32 to 64", "unit": "µg/mL"},
      {"measurement": "Number of colonies grown in a Petri dish", "setting": "Asp. fumigates; exposure 1 min, 0.1% solution", "result": 20},
      {"measurement": "Number of colonies grown in a Petri dish", "setting": "Asp. fumigates; exposure 1 min, 0.2% solution", "result": 10},
      {"measurement": "Number of colonies grown in a Petri dish", "setting": "Asp. fumigates; exposure 5 min, 0.1% solution", "result": 12},
      {"measurement": "Number of colonies grown in a Petri dish", "setting": "Asp. fumigates; exposure 15 min, 0.1% solution", "result": 2},
      {"measurement": "Number of colonies grown in a Petri dish", "setting": "C. albicans; exposure 1 min, 0.1% solution", "result": 12},
      {"measurement": "Number of colonies grown in a Petri dish", "setting": "C. albicans; exposure 1 min, 0.2% solution", "result": 5},
      {"measurement": "Number of colonies grown in a Petri dish", "setting": "C. albicans; exposure 5 min, 0.1% solution", "result": 7}
    ]}
  ]
}
